Where a SMILES comes first, the peptide text is derived from it. [ ]: non-standard residue; d: D form. The star is where a group is joined. NH(CH2)3NH(1-anthraquinonyl) = O=C1c2ccccc2C(=O)c2c(NCCCN*)cccc21; Nle = CCCC[C@H](N)C(=O)O; Nva = CCC[C@H](N)C(=O)O; Mob = COc1ccc(C*)cc1
| SMILES | melting point |
| --- | --- |
| CC(C)C[C@H](NC(=O)[C@H](C)N)C(=O)NCC(=O)N[C@@H](CC(C)C)C(=O)N1CCC[C@@H]1C(=O)NCCCNc1cccc2c1C(=O)c1ccccc1C2=O.O=C(O)C(F)(F)F | 168 °C |
| NCCCNc1cccc2c1C(=O)c1ccccc1C2=O | 196 °C |
| CCCC[C@H](NC(=O)[C@H](C)NC(=O)[C@H](C)NC(=O)[C@@H](C)N)C(=O)NCC(=O)N[C@@H](CC(C)C)C(=O)N1CCC[C@H]1C(=O)NCCCNc1cccc2c1C(=O)c1ccccc1C2=O.O=C(O)C(F)(F)F | 192 °C |
| CSC[C@H](NC(=O)[C@H](C)NC(=O)[C@H](C)NC(=O)[C@@H](C)N)C(=O)NCC(=O)N[C@@H](CC(C)C)C(=O)N1CCC[C@H]1C(=O)NCCCNc1cccc2c1C(=O)c1ccccc1C2=O.O=C(O)C(F)(F)F | 191 °C |
| CC(C)C[C@H](NC(=O)[C@H](Cc1ccc(O)cc1)NC(=O)[C@H](C)NC(=O)[C@@H](C)N)C(=O)NCC(=O)N[C@@H](CC(C)C)C(=O)N1CCC[C@H]1C(=O)NCCCNc1cccc2c1C(=O)c1ccccc1C2=O.O=C(O)C(F)(F)F | 190 to 194 °C |
| CCC[C@H](NC(=O)[C@H](C)NC(=O)[C@@H](C)N)C(=O)N[C@@H](CC(C)C)C(=O)NCC(=O)N[C@@H](CC(C)C)C(=O)N1CCC[C@H]1C(=O)NCCCNc1cccc2c1C(=O)c1ccccc1C2=O.O=C(O)C(F)(F)F | 174 to 178 °C |
| CC(C)C[C@H](NC(=O)[C@H](C)NC(=O)[C@H](C)NC(=O)[C@H](N)CCCCN)C(=O)NCC(=O)N[C@@H](CC(C)C)C(=O)N1CCC[C@H]1C(=O)NCCCNc1cccc2c1C(=O)c1ccccc1C2=O.O=C(O)C(F)(F)F.O=C(O)C(F)(F)F | 196 °C |
| CCC[C@H](NC(=O)[C@H](Cc1ccc(O)cc1)NC(=O)[C@H](C)NC(=O)[C@@H](C)N)C(=O)NCC(=O)N[C@@H](CC(C)C)C(=O)N1CCC[C@H]1C(=O)NCCCNc1cccc2c1C(=O)c1ccccc1C2=O.O=C(O)C(F)(F)F | 190 °C |
| CSC[C@H](NC(=O)[C@H](Cc1ccc(O)cc1)NC(=O)[C@H](C)NC(=O)[C@@H](C)N)C(=O)NCC(=O)N[C@@H](CC(C)C)C(=O)N1CCC[C@H]1C(=O)NCCCNc1cccc2c1C(=O)c1ccccc1C2=O.O=C(O)C(F)(F)F | 195 °C |
| CCC[C@H](N)C(=O)N1CCC[C@H]1C(=O)NCCCNc1cccc2c1C(=O)c1ccccc1C2=O.O=C(O)C(F)(F)F | 190 to 194 °C |
| CCC[C@H](NC(=O)CN)C(=O)N1CCC[C@H]1C(=O)NCCCNc1cccc2c1C(=O)c1ccccc1C2=O.O=C(O)C(F)(F)F | 196 °C |
| CCC[C@H](NC(=O)CNC(=O)[C@H](CC(C)C)NC(=O)[C@H](C)NC(=O)[C@H](C)NC(=O)[C@@H](C)N)C(=O)N1CCC[C@H]1C(=O)NCCCNc1cccc2c1C(=O)c1ccccc1C2=O.O=C(O)C(F)(F)F | 192 to 196 °C |
| CC(C)C[C@H](NC(=O)[C@H](C)N)C(=O)N1CCC[C@H]1C(=O)NCCCNc1cccc2c1C(=O)c1ccccc1C2=O.O=C(O)C(F)(F)F | 170 to 174 °C |
| CC(C)C[C@H](NC(=O)CNC(=O)[C@H](C)NC(=O)[C@@H](C)N)C(=O)N[C@@H](C)C(=O)N[C@@H](CC(C)C)C(=O)N1CCC[C@H]1C(=O)NCCCNc1cccc2c1C(=O)c1ccccc1C2=O.O=C(O)C(F)(F)F | 192 °C |
| CC(C)C[C@H](NC(=O)[C@@H](N)Cc1ccccc1)C(=O)N1CCC[C@H]1C(=O)NCCCNc1cccc2c1C(=O)c1ccccc1C2=O.O=C(O)C(F)(F)F | 184 to 188 °C |
| CC(C)C[C@H](NC(=O)CNC(=O)[C@H](C)NC(=O)[C@@H](C)N)C(=O)N[C@@H](Cc1ccccc1)C(=O)N[C@@H](CC(C)C)C(=O)N1CCC[C@H]1C(=O)NCCCNc1cccc2c1C(=O)c1ccccc1C2=O.O=C(O)C(F)(F)F | 190 to 194 °C |
| NCC(=O)N1CCC[C@H]1C(=O)NCCCNc1cccc2c1C(=O)c1ccccc1C2=O.O=C(O)C(F)(F)F | 160 to 166 °C |
| CC(C)C[C@H](N)C(=O)NCC(=O)N1CCC[C@H]1C(=O)NCCCNc1cccc2c1C(=O)c1ccccc1C2=O.O=C(O)C(F)(F)F | 172 to 174 °C |
| CC(C)C[C@H](NC(=O)[C@@H](N)Cc1ccccc1)C(=O)NCC(=O)N1CCC[C@H]1C(=O)NCCCNc1cccc2c1C(=O)c1ccccc1C2=O.O=C(O)C(F)(F)F | 164 to 168 °C |
| CC(C)C[C@H](NC(=O)[C@H](Cc1ccccc1)NC(=O)CN)C(=O)NCC(=O)N1CCC[C@H]1C(=O)NCCCNc1cccc2c1C(=O)c1ccccc1C2=O.O=C(O)C(F)(F)F | 157 °C |
| NCC(=O)N1CCC[C@@H]1C(=O)NCCCNc1cccc2c1C(=O)c1ccccc1C2=O.O=C(O)C(F)(F)F | 156 to 162 °C |

| SMILES | melting point |
| --- | --- |
| CC(C)C[C@H](N)C(=O)NCC(=O)N1CCC[C@@H]1C(=O)NCCCNc1cccc2c1C(=O)c1ccccc1C2=O.O=C(O)C(F)(F)F | 174 to 178 °C |
| CC(C)C[C@H](NC(=O)[C@@H](N)Cc1ccccc1)C(=O)NCC(=O)N1CCC[C@@H]1C(=O)NCCCNc1cccc2c1C(=O)c1ccccc1C2=O.O=C(O)C(F)(F)F | 170 °C |
| CC(C)C[C@H](NC(=O)[C@H](Cc1ccccc1)NC(=O)CN)C(=O)NCC(=O)N1CCC[C@@H]1C(=O)NCCCNc1cccc2c1C(=O)c1ccccc1C2=O.O=C(O)C(F)(F)F | 154 to 156 °C |
| N[C@@H](Cc1ccccc1)C(=O)N1CCC[C@@H]1C(=O)NCCCNc1cccc2c1C(=O)c1ccccc1C2=O.O=C(O)C(F)(F)F | 118 to 120 °C |
| NCC(=O)N[C@@H](Cc1ccccc1)C(=O)N1CCC[C@@H]1C(=O)NCCCNc1cccc2c1C(=O)c1ccccc1C2=O.O=C(O)C(F)(F)F | 128 to 130 °C |
| CC[C@H](C)[C@H](N)C(=O)NCC(=O)N[C@@H](Cc1ccccc1)C(=O)N1CCC[C@@H]1C(=O)NCCCNc1cccc2c1C(=O)c1ccccc1C2=O.O=C(O)C(F)(F)F | 120 to 126 °C |
| CC[C@H](C)[C@H](NC(=O)[C@@H](N)Cc1ccccc1)C(=O)NCC(=O)N[C@@H](Cc1ccccc1)C(=O)N1CCC[C@@H]1C(=O)NCCCNc1cccc2c1C(=O)c1ccccc1C2=O.O=C(O)C(F)(F)F | 130 to 134 °C |
| CC[C@H](C)[C@H](NC(=O)[C@H](Cc1ccccc1)NC(=O)[C@@H](N)CC(C)C)C(=O)NCC(=O)N[C@@H](Cc1ccccc1)C(=O)N1CCC[C@@H]1C(=O)NCCCNc1cccc2c1C(=O)c1ccccc1C2=O.O=C(O)C(F)(F)F | 168 to 170 °C |
| CC[C@H](C)[C@H](NC(=O)[C@H](Cc1ccccc1)NC(=O)[C@H](CC(C)C)NC(=O)[C@@H](C)N)C(=O)NCC(=O)N[C@@H](Cc1ccccc1)C(=O)N1CCC[C@@H]1C(=O)NCCCNc1cccc2c1C(=O)c1ccccc1C2=O.O=C(O)C(F)(F)F | 144 to 146 °C |
| CSC[C@H](NC(=O)[C@H](C)NC(=O)[C@H](C)N)C(=O)NCC(=O)N[C@@H](CC(C)C)C(=O)N1CCC[C@H]1C(=O)NCCCNc1cccc2c1C(=O)c1ccccc1C2=O.O=C(O)C(F)(F)F (H-AAC(Me)GLP-{NH(CH2)3NH(1-anthraquinonyl)}) | 162 °C |
| COc1ccc(CSC[C@H](NC(=O)[C@H](C)NC(=O)[C@H](C)N)C(=O)NCC(=O)N[C@@H](CC(C)C)C(=O)N2CCC[C@H]2C(=O)NCCCNc2cccc3c2C(=O)c2ccccc2C3=O)cc1.O=C(O)C(F)(F)F (H-AAC(Mob)GLP-{NH(CH2)3NH(1-anthraquinonyl)}) | 182 °C |
| CCC[C@H](NC(=O)CNC(=O)[C@H](CC(C)C)NC(=O)[C@H](C)NC(=O)[C@H](C)N)C(=O)N1CCC[C@H]1C(=O)NCCCNc1cccc2c1C(=O)c1ccccc1C2=O.O=C(O)C(F)(F)F (H-AALG[Nva]P-{NH(CH2)3NH(1-anthraquinonyl)}) | 188 °C |
| CCCC[C@H](NC(=O)[C@H](C)NC(=O)[C@H](C)N)C(=O)NCC(=O)N[C@@H](CC(C)C)C(=O)N1CCC[C@H]1C(=O)NCCCNc1cccc2c1C(=O)c1ccccc1C2=O.O=C(O)C(F)(F)F (H-AA[Nle]GLP-{NH(CH2)3NH(1-anthraquinonyl)}) | 176 °C |
| CCC[C@H](NC(=O)[C@H](C)NC(=O)[C@H](C)N)C(=O)NCC(=O)N[C@@H](CC(C)C)C(=O)N1CCC[C@H]1C(=O)NCCCNc1cccc2c1C(=O)c1ccccc1C2=O.O=C(O)C(F)(F)F (H-AA[Nva]GLP-{NH(CH2)3NH(1-anthraquinonyl)}) | 197 °C |
| CC(C)C[C@H](NC(=O)CNC(=O)[C@H](C)N)C(=O)N[C@@H](C)C(=O)N[C@@H](CC(C)C)C(=O)N1CCC[C@H]1C(=O)NCCCNc1cccc2c1C(=O)c1ccccc1C2=O.O=C(O)C(F)(F)F (H-AGLALP-{NH(CH2)3NH(1-anthraquinonyl)}) | 185 °C |
| CC(C)C[C@H](NC(=O)CNC(=O)[C@H](C)N)C(=O)N[C@@H](Cc1ccccc1)C(=O)N[C@@H](CC(C)C)C(=O)N1CCC[C@H]1C(=O)NCCCNc1cccc2c1C(=O)c1ccccc1C2=O.O=C(O)C(F)(F)F (H-AGLFLP-{NH(CH2)3NH(1-anthraquinonyl)}) | 186 °C |
| CCC[C@H](NC(=O)CNC(=O)[C@H](CC(C)C)NC(=O)[C@H](C)N)C(=O)N1CCC[C@H]1C(=O)NCCCNc1cccc2c1C(=O)c1ccccc1C2=O.O=C(O)C(F)(F)F (H-ALG[Nva]P-{NH(CH2)3NH(1-anthraquinonyl)}) | 176 to 178 °C |
| CSC[C@H](NC(=O)[C@H](Cc1ccc(O)cc1)NC(=O)[C@H](C)N)C(=O)NCC(=O)N[C@@H](CC(C)C)C(=O)N1CCC[C@H]1C(=O)NCCCNc1cccc2c1C(=O)c1ccccc1C2=O.O=C(O)C(F)(F)F (H-AYC(Me)GLP-{NH(CH2)3NH(1-anthraquinonyl)}) | 166 to 170 °C |
| CC(C)C[C@H](NC(=O)[C@H](Cc1ccc(O)cc1)NC(=O)[C@H](C)N)C(=O)NCC(=O)N[C@@H](CC(C)C)C(=O)N1CCC[C@H]1C(=O)NCCCNc1cccc2c1C(=O)c1ccccc1C2=O.O=C(O)C(F)(F)F (H-AYLGLP-{NH(CH2)3NH(1-anthraquinonyl)}) | 182 °C |
| CCC[C@H](NC(=O)[C@H](Cc1ccc(O)cc1)NC(=O)[C@H](C)N)C(=O)NCC(=O)N[C@@H](CC(C)C)C(=O)N1CCC[C@H]1C(=O)NCCCNc1cccc2c1C(=O)c1ccccc1C2=O.O=C(O)C(F)(F)F (H-AY[Nva]GLP-{NH(CH2)3NH(1-anthraquinonyl)}) | 182 °C |
| CCCC[C@H](NC(=O)[C@H](C)N)C(=O)NCC(=O)N[C@@H](CC(C)C)C(=O)N1CCC[C@H]1C(=O)NCCCNc1cccc2c1C(=O)c1ccccc1C2=O.O=C(O)C(F)(F)F (H-A[Nle]GLP-{NH(CH2)3NH(1-anthraquinonyl)}) | 185 °C |
